Patent US20220296595A1, “CDK INHIBITORS” (QILU REGOR THERAPEUTICS INC., priority 2019, published 2022)
Where two headings read alike, the source gives them in different places.

Tests used:
CDK2/CyclinE1 = target: T1, CDK2/CyclinE1 (Homo sapiens, UniProt P24941); experiment: Assay for inhibition of CDK2/CyclinE1 (Caliper microfluidic kinase assay); assay type: biochemical; details: read-out: CDK2 IC50
T1 construct: purchased SignalChem C29-18G
Description: The CDK2 enzyme assay for IC50 determination was performed as follows. Microfluidic kinase detection technology (Caliper) was used to monitor the phosphorylation of peptide substrate by CDK2/CyclinE1. The total reaction volume was 15 μL containing buffer A (100 mM HEPES (pH 7.5), 0.1% BSA, 0.01% Triton X-100, 1 mM DTT, 10 mM MgCl2, 10 μM Sodium Orthovanadate, 10 μM Beta-Glycerophosphate), 100 μM ATP, 5 nM CDK2/CyclinE1 (SignalChem, C29-18G), 5 μM FL-18 (5-FAM-QSPKKG-NH2), and the test compound at appropriate dilutions in DMSO. All components were added to the 384-well plate (Corning, 4514), and incubate at Room Temperature for 3 hours. The reaction was terminated by addition of 15 μL Stop Buffer (180 mM HEPES (pH 7.5), 20 mM EDTA, Coating-3 reagent (PerkinElmer, 760050)). The plate was loaded on Caliper EZ Reader (EZ Reader II, PerkinElmer, HD-4HYSG2772), and the reaction mixtures including substrate and product were sipped into the microfluidic chip for separation and detection. The IC50 values of the test compound were determined by fitting the inhibition curves by 4 parameter sigmoidal dose-response model using the Xlfit5/GraphPad Prism 5 software.

CDK4/CyclinD1 = target: T2, CDK4/CyclinD1 (Homo sapiens, UniProt P11802); experiment: Assay for inhibition of CDK4/CyclinD1 (Caliper microfluidic kinase assay); assay type: biochemical
T2 construct: purchased Thermofisher PR8064A
T2 sequence (P11802 whole entry): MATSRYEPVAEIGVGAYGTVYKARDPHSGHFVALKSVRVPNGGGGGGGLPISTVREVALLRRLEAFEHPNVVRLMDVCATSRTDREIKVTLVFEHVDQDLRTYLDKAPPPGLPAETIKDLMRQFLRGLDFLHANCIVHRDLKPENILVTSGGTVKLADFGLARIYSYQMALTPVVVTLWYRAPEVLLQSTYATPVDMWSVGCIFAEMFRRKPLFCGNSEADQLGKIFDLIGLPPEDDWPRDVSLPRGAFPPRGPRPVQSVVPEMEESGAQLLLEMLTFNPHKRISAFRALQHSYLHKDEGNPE
T2 sequence (P24385 whole entry partner): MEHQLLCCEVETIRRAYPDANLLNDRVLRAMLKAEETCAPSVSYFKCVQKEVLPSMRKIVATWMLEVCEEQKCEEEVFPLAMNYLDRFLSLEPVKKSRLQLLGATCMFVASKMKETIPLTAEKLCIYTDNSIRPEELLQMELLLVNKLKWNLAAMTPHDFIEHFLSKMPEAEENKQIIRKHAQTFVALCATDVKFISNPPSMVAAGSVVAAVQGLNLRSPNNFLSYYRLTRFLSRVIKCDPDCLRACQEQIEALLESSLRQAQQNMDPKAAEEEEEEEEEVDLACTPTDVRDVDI
Description: The CDK4 enzyme assay for IC50 determination was performed as follows. Microfluidic kinase detection technology (Caliper) was used to monitor the phosphorylation of peptide substrate by CDK4/CyclinD1. The total reaction volume was 15 μL containing buffer A (100 mM HEPES (pH 7.5), 0.1% BSA, 0.01% Triton X-100, 1 mM DTT, 10 mM MgCl2, 10 μM Sodium Orthovanadate, 10 μM Beta-Glycerophosphate), 200 μM ATP, 1 nM CDK4/CyclinD1 (Thermofisher, PR8064A), 1 μM FL-34 (5-FAM-[…]), and the test compound at appropriate dilutions in DMSO. All components were added to the 384-well plate (Corning, 4514), and incubated at Room Temperature for 3 hours. The reaction was terminated by addition of 15 μL Stop Buffer (180 mM HEPES (pH 7.5), 20 mM EDTA, Coating-3 reagent (PerkinElmer, 760050)). The plate was then loaded on Caliper EZ Reader (EZ Reader II, PerkinElmer, HD-4HYSG2772), and the reaction mixtures including substrate and product were sipped into the microfluidic chip for separation and detection. The IC50 values of the test compound were determined by fitting the inhibition curves by 4 parameter sigmoidal dose-response model using the Xlfit5/GraphPad Prism 5 software.

Row | SMILES | IC50 (CDK2/CyclinE1; CDK2/CyclinE1, 100 μM ATP) | IC50 (CDK4/CyclinD1; CDK4/CyclinD1, 200 μM ATP) | IC50 (CDK2/CyclinE1; CDK2/CyclinE1) | IC50 (CDK4/CyclinD1; CDK4/CyclinD1)
1 | CC(C)c1cnc2cnc(-c3ccnc(Nc4ccc(N5CCNCC5=O)cn4)n3)cn12 [Synthetic Example 143] | > 1000 nM | 10 to 100 nM |  | 
2 | COc1nc(-c2nc(Nc3ccc(N4CCOCC4=O)cn3)ncc2F)cc2c1nc(C)n2C1CCCC1O (centres unmarked) [compound 71] |  |  | > 1000 nM | 10 to 100 nM
3 | COc1nc(-c2nc(Nc3ccc(N4CCOCC4=O)cn3)ncc2F)cc2c1nc(C)n2C(C)CO (centres unmarked) [compound 72] |  |  | > 1000 nM | 10 to 100 nM
4 | COc1nc(-c2nc(Nc3ccc(N4CCOC4=O)cn3)ncc2F)cc2c1nc(C)n2C(C)C [compound 85] |  |  | > 1000 nM | 10 to 100 nM
5 | CCN1CCN(c2ccc(Nc3ncc(F)c(-c4cc5c(nc(C)n5C(C)C)c(OC)n4)n3)nc2)C1=O [compound 89] |  |  | > 1000 nM | 10 to 100 nM
6 | COc1nc(-c2nc(Nc3ccc(N4CCC5(CCNC5=O)CC4)cn3)ncc2F)cc2c1nc(C)n2C(C)C [compound 90] |  |  | > 1000 nM | 10 to 100 nM
7 | COc1nc(-c2nc(Nc3ccc(N4CCOCC4C)cn3)ncc2F)cc2c1nc(C)n2C(C)C (centres unmarked) [compound 97] |  |  | > 1000 nM | 10 to 100 nM
8 | CCN1CCN(c2ccc(Nc3ncc(F)c(-c4cc5c(nc(C)n5C(C)C)c(OC)n4)n3)nc2)CC1=O [compound 105] |  |  | > 1000 nM | 10 to 100 nM
9 | COc1nc(-c2ccnc(Nc3ccn(CC4CCNCC4)n3)n2)cc2c1ncn2C(C)C [compound 108] | > 1000 nM | 10 to 100 nM |  | 
10 | COc1nc(-c2nc(Nc3ccc(N4CCNC5(CC5)C4)cn3)ncc2F)cc2c1nc(C)n2C(C)C [compound 110] | > 1000 nM | 10 to 100 nM |  | 
11 | COc1nc(-c2nc(Nc3ccc(C(=O)N4CCC(N)CC4)c(C)n3)ncc2F)cc2c1nc(C)n2C(C)C [compound 120] | > 1000 nM | 10 to 100 nM |  | 
12 | COc1nc(-c2ccnc(Nc3ccc4c(n3)CCN(C(=O)CO)C4)n2)cc2c1ncn2C(C)C [compound 141] | > 1000 nM | 10 to 100 nM |  | 
13 | COc1nc(-c2ccnc(Nc3ccc4c(n3)CCN(C(=O)CC#N)C4)n2)cc2c1ncn2C(C)C [compound 142] | > 1000 nM | 10 to 100 nM |  | 
14 | CC(C)c1cnn2ccc(-c3ccnc(Nc4ccc(N5CCCC(N)C5=O)cc4F)n3)cc12 (centres unmarked) [compound 223] | 10 to 100 nM | < 10 nM |  | 
15 | CNC1CCCN(c2ccc(Nc3nccc(-c4ccn5ncc(C(C)C)c5c4)n3)c(F)c2)C1=O (centres unmarked) [compound 231] | 10 to 100 nM | < 10 nM |  | 
16 | CCN1CCN(Cc2ccc(Nc3ncc(F)c(N4CCc5ncn(C(C)C)c5C4)n3)nc2)CC1 [compound 251] | > 1000 nM | 10 to 100 nM |  | 
17 | CC1(C)COc2c(F)cc(-c3ccnc(Nc4ccc(N5CCCC(N)C5=O)nc4)n3)cc21 (centres unmarked) [compound 264] | 10 to 100 nM | < 10 nM |  | 
18 | CCN1CCN(c2ccc(Nc3nccc(-c4cc5c(ncn5C(C)C)c(F)n4)n3)nc2)C(=O)C1 [compound 274] | 100 to 1000 nM | < 10 nM |  | 
19 | CC(C)n1cnc2c(F)nc(-c3ccnc(NC4CCN(S(C)(=O)=O)CC4)n3)cc21 [compound 310] | 10 to 100 nM | 10 to 100 nM |  | 

Continued, values first:

Row | IC50 (CDK2/CyclinE1; CDK2/CyclinE1, 100 μM ATP) | IC50 (CDK4/CyclinD1; CDK4/CyclinD1, 200 μM ATP) | IC50 (CDK2/CyclinE1; CDK2/CyclinE1) | IC50 (CDK4/CyclinD1; CDK4/CyclinD1) | SMILES
20 | < 10 nM | < 10 nM |  |  | CC(C)c1cnn2ccc(-c3ccnc(Nc4ccc(C(=O)N5CCC(N(C)C)CC5)cc4)n3)cc12 [compound 148]
21 | < 10 nM | 10 to 100 nM |  |  | CC(C)c1cnn2ccc(-c3ccnc(Nc4ccc(C(=O)N5CCC(O)CC5)cc4)n3)cc12 [compound 149]
22 | < 10 nM | < 10 nM |  |  | CC(C)c1cnn2ccc(-c3ccnc(Nc4ccc(C(=O)N5CCC(O)C5)cc4)n3)cc12 (centres unmarked) [compound 150]
23 | < 10 nM | < 10 nM |  |  | CC(C)c1cnn2ccc(-c3ccnc(Nc4ccc(C(=O)N5CCC(N(C)C)C5)cc4)n3)cc12 (centres unmarked) [compound 151]
24 | 10 to 100 nM | 10 to 100 nM |  |  | CC(C)c1cnn2ccc(-c3ccnc(Nc4ccc(C(=O)N5CCC(N(C)C)C5)cc4F)n3)cc12 (centres unmarked) [compound 152]
25 | < 10 nM | < 10 nM |  |  | CC(C)c1cnn2ccc(-c3ccnc(Nc4ccc(C(=O)N5CC(O)C5)cc4)n3)cc12 [compound 153]
26 | < 10 nM | < 10 nM |  |  | CC(C)c1cnn2ccc(-c3ccnc(Nc4ccc(C(=O)N5CC(N(C)C)C5)cc4)n3)cc12 [compound 154]
27 | < 10 nM | < 10 nM |  |  | CC(C)c1cnn2ccc(-c3ccnc(Nc4ccc(N5CCC(N(C)C)CC5=O)cc4F)n3)cc12 (centres unmarked) [compound 180]
28 | < 10 nM | < 10 nM |  |  | CN(C)C1CCN(c2ccc(Nc3nccc(-c4ccn5ncc(C(C)(C)C)c5c4)n3)c(F)c2)C(=O)C1 (centres unmarked) [compound 181]
29 | < 10 nM | 10 to 100 nM |  |  | Cc1nn2ccc(-c3ccnc(Nc4ccc(S(N)(=O)=O)nc4)n3)cc2c1C(C)C [compound 182]
30 | < 10 nM | 10 to 100 nM |  |  | Cc1cc(N2CCNCC2=O)ccc1Nc1nccc(-c2ccn3ncc(C(C)C)c3c2)n1 [compound 186]
31 | 10 to 100 nM | 10 to 100 nM |  |  | CC(C)c1cnn2ccc(-c3ccnc(Nc4cccc(N5CCNCC5=O)c4)n3)cc12 [compound 187]
32 | 10 to 100 nM | 10 to 100 nM |  |  | CC(C)c1cnn2ccc(-c3ccnc(Nc4ccc(N5CCNCC5=O)cc4O)n3)cc12 [compound 188]
33 | 10 to 100 nM | < 10 nM |  |  | CNC1CN(C(=O)c2ccc(Nc3nccc(-c4ccn5ncc(C(C)C)c5c4)n3)cc2)C1 [compound 190]
34 | < 10 nM | < 10 nM |  |  | CC(C)c1cnn2ccc(-c3ccnc(Nc4ccc(N5CCC(C)(N)CC5=O)cc4Cl)n3)cc12 (centres unmarked) [compound 212]
35 | 10 to 100 nM | 10 to 100 nM |  |  | COc1cc(N2CCCC(N)C2=O)ccc1Nc1nccc(-c2ccn3ncc(C(C)C)c3c2)n1 (centres unmarked) [compound 222]
36 | < 10 nM | < 10 nM |  |  | CC(C)c1cnn2ccc(-c3ccnc(Nc4ccc(N5CCNCC5=O)c(F)c4)n3)cc12 [compound 228]
37 | < 10 nM | < 10 nM |  |  | CC(C)c1cnn2ccc(-c3ccnc(Nc4ccc(N5CCNCC5=O)c(F)c4F)n3)cc12 [compound 229]
38 | < 10 nM | < 10 nM |  |  | CCNC1CCN(c2ccc(Nc3nccc(-c4ccn5ncc(C(C)C)c5c4)n3)c(F)c2)C(=O)C1 (centres unmarked) [compound 230]
39 | < 10 nM | < 10 nM |  |  | CC(C)(C)c1cnn2ccc(-c3ccnc(Nc4ccc(N5CCCC(N)C5=O)cc4F)n3)cc12 (centres unmarked) [compound 232]
40 | < 10 nM | < 10 nM |  |  | CC(C)c1cnn2ccc(-c3ccnc(Nc4ccc(N5CCC(NCCF)CC5=O)cc4)n3)cc12 (centres unmarked) [compound 233]
41 | < 10 nM | 10 to 100 nM |  |  | CC(C)n1cnc2c1CN(c1nc(Nc3ccc(S(N)(=O)=O)nc3)ncc1F)CC2 [compound 254]
42 | < 10 nM | < 10 nM |  |  | CC(C)n1cnc2c1CN(c1nc(Nc3ccc4c(c3)CS(=O)(=O)C4)ncc1F)CC2 [compound 255]
43 | < 10 nM | < 10 nM |  |  | CC(C)n1cnc2c1CN(c1nc(Nc3ccc(N4CCNCC4=O)cc3F)ncc1F)CC2 [compound 256]
44 | < 10 nM | < 10 nM |  |  | CC(C)n1cnc2c(F)nc(-c3ccnc(Nc4ccc(N5CCC(C)(N)CC5=O)cc4Cl)n3)cc21 (centres unmarked) [compound 291]
45 | < 10 nM | < 10 nM |  |  | COc1cc(N2CCC(N(C)C)CC2=O)ccc1Nc1nccc(-c2cc3c(ncn3C(C)C)c(F)n2)n1 (centres unmarked) [compound 296]
46 | < 10 nM | < 10 nM |  |  | CC(C)n1cnc2c(F)nc(-c3ccnc(Nc4ccc(N5CCC(N(C)C)CC5=O)cc4F)n3)cc21 (centres unmarked) [compound 305]
